Experimental data published in US12338243B2, “P2X7 modulators” (JANSSEN PHARMACEUTICA NV, priority 2014, dated 2025).

Assays:
P2X7 = molecular target: T1, P2X7 (Homo sapiens, UniProt Q99572); assay: Ca2+ flux (FLIPR) in 1321N1 cells expressing recombinant human P2X7 channel; assay type: cell-based; parameters: expressed in transfected cells; host or cells: 1321N1 cells; conditions: 250 μM BzATP
T1 sequence (Q99572 1-595): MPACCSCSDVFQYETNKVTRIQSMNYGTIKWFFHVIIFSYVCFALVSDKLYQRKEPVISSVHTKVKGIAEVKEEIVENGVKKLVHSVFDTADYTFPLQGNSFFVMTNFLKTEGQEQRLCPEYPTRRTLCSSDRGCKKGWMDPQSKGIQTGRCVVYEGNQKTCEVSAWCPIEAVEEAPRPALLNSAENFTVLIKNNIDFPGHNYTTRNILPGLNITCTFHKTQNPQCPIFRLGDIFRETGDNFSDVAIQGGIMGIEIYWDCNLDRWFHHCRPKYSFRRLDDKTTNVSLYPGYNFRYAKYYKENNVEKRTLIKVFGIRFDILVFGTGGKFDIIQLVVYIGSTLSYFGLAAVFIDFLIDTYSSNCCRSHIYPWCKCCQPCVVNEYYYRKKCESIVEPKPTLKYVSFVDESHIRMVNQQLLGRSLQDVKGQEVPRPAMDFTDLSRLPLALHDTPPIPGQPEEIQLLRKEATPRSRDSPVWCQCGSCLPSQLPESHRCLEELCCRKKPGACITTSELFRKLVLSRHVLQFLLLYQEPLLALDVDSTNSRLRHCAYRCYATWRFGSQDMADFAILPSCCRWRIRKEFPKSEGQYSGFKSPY
Procedure: P2X7 Antagonism in Recombinant Human P2X7 Cells or Recombinant Rat P2X7 Cells: (a) Ca^2+ Flux and (b) Radioligand Binding
(a) Ca^2+ flux: 1321N1 cells expressing the recombinant human or rat P2X7 channel was cultured in HyQ DME/(HyClone/Dulbecco's Modified Eagle Medium) high glucose supplemented with 10% Fetal Bovine Serum (FBS) and appropriate selection marker. Cells were seeded at a density of 25000 cells/well (96-well clear bottom black walled plates) in 100 μl volume/well. On the day of the experiment, cell plates were washed with assay buffer, containing (in mM): 130 NaCl, 2 KCl, 1 CaCl2), 1 MgCl2, 10 HEPES, 5 glucose; pH 7.40 and 300 mOs. After the wash, cells were loaded with the Calcium-4 dye (Molecular Device) and incubated in the dark for 60 minutes. Test compounds were prepared at 250× the test concentration in neat DMSO. Intermediate 96-well compound plates were prepared by transferring 1.2 μL of the compound into 300 μL of assay buffer. A further 3× dilution occurred when transferring 50 μL/well of the compound plate to 100 μL/well in the cell plate. Cells were incubated with test compounds and dye for 30 minutes. […] The fluorescence change was measured 180 seconds after adding the agonist.

rat P2X7 = molecular target: T2, rat P2X7 (Rattus norvegicus, UniProt Q64663); assay: Ca2+ flux (FLIPR) in 1321N1 cells expressing recombinant rat P2X7 channel; conditions: FLIPR (rat) IC50 (μM), 250 μM BzATP
T2 sequence (Q64663 1-595): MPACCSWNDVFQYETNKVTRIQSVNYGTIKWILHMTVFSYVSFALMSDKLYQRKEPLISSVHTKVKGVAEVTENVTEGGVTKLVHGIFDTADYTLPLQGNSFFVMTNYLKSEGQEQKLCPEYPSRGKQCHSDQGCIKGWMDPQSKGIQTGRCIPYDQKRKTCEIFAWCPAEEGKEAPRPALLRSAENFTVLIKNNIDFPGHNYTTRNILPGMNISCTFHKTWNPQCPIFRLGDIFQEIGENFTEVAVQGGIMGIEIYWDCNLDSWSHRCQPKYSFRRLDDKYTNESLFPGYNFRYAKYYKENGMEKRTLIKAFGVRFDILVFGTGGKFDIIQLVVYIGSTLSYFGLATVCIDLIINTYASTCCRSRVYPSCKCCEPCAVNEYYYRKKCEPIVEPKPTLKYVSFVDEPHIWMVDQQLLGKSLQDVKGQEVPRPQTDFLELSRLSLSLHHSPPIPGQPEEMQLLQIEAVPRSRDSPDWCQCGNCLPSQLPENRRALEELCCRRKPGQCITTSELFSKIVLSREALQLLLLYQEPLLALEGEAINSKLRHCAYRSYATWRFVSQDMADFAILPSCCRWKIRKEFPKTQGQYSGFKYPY

Row | IC50 (P2X7) [µM] | IC50 (rat P2X7) [µM] | SMILES
1 | 1.55 | > 10 | O=C(c1cccc(C(F)(F)F)c1Cl)N1CCn2c(nnc2C(F)(F)F)C1c1ccn[nH]1 (racemic) [Example 126, (±)-(8-(1H-pyrazol-5-yl)-3-(trifluoromethyl)-5,6-dihydro-[1,2,4]triazolo[4,3-a]pyrazin-7(8H)-yl)(2-chloro-3-(trifluoromethyl)phenyl)methanone]
2 | > 10 | > 10 | CC1Cn2c(nnc2C(F)(F)F)C(c2ccccc2)N1C(=O)c1cccc(C(F)(F)F)c1Cl (racemic) [Example 130, (±)-(2-chloro-3-(trifluoromethyl)phenyl)(6-methyl-8-phenyl-3-(trifluoromethyl)-5,6-dihydro-[1,2,4]triazolo[4,3-a]pyrazin-7(8H)-yl)methanone]
3 | 4.13 | 3.95 | C[C@H]1Cn2c(nnc2-c2ccc(C(F)(F)F)cc2)CN1C(=O)c1cccc(Cl)c1Cl [Example 26, (S)-(2,3-dichlorophenyl)(6-methyl-3-(4-(trifluoromethyl)phenyl)-5,6-dihydro-[1,2,4]triazolo[4,3-a]pyrazin-7(8H)-yl)methanone]
4 | 1.66 | 2.96 | C[C@H]1Cn2c(nnc2-c2ccc(C(F)(F)F)cc2)CN1C(=O)c1cccc(C(F)(F)F)c1Cl [Example 27, (S)-(2-chloro-3-(trifluoromethyl)phenyl)(6-methyl-3-(4-(trifluoromethyl)phenyl)-5,6-dihydro-[1,2,4]triazolo[4,3-a]pyrazin-7(8H)-yl)methanone]
5 | 7.48 | 3.78 | C[C@H]1Cn2c(nnc2-c2ccc(C(F)(F)F)c(F)c2)CN1C(=O)c1cccc(Cl)c1Cl [Example 28, (S)-(2,3-dichlorophenyl)(3-(3-fluoro-4-(trifluoromethyl)phenyl)-6-methyl-5,6-dihydro-[1,2,4]triazolo[4,3-a]pyrazin-7(8H)-yl)methanone]
6 | 3.55 | 2.97 | C[C@H]1Cn2c(nnc2-c2ccc(C(F)(F)F)c(F)c2)CN1C(=O)c1cccc(C(F)(F)F)c1Cl [Example 29, (S)-(2-chloro-3-(trifluoromethyl)phenyl)(3-(3-fluoro-4-(trifluoromethyl)phenyl)-6-methyl-5,6-dihydro-[1,2,4]triazolo[4,3-a]pyrazin-7(8H)-yl)methanone]
7 | 12.9 | > 10 | CC1CN(C(=O)c2cccc(Cl)c2Cl)Cc2nnc(-c3ccccn3)n21 (stereo not drawn) [Example 34, (2,3-dichlorophenyl)(5-methyl-3-(pyridin-2-yl)-5,6-dihydro-[1,2,4]triazolo[4,3-a]pyrazin-7(8H)-yl)methanone]
8 | > 10 | > 10 | CC1c2nnc(-c3ccc(C(F)(F)F)cc3)n2CCN1C(=O)c1cccc(C(F)(F)F)c1Cl (stereo not drawn) [Example 35, (2-chloro-3-(trifluoromethyl)phenyl)(8-methyl-3-(4-(trifluoromethyl)phenyl)-5,6-dihydro-[1,2,4]triazolo[4,3-a]pyrazin-7(8H)-yl)methanone]
9 | 2.43 | 9.44 | C[C@H]1Cn2c(nnc2-c2ccccc2F)CN1C(=O)c1cccc(C(F)(F)F)c1Cl [Example 39, (S)-(2-chloro-3-(trifluoromethyl)phenyl)(3-(2-fluorophenyl)-6-methyl-5,6-dihydro-[1,2,4]triazolo[4,3-a]pyrazin-7(8H)-yl)methanone]
10 | 9.04 | 14.8 | C[C@H]1Cn2c(nnc2-c2ccccc2F)CN1C(=O)c1ccc(F)c(Cl)c1Cl [Example 40, (S)-(2,3-dichloro-4-fluorophenyl)(3-(2-fluorophenyl)-6-methyl-5,6-dihydro-[1,2,4]triazolo[4,3-a]pyrazin-7(8H)-yl)methanone]
11 | > 10 | 10.7 | C[C@H]1Cn2c(nnc2-c2cccc(F)c2)CN1C(=O)c1cccc(Cl)c1Cl [Example 41, (S)-(2,3-dichlorophenyl)(3-(3-fluorophenyl)-6-methyl-5,6-dihydro-[1,2,4]triazolo[4,3-a]pyrazin-7(8H)-yl)methanone]
12 | 3.92 | 1.46 | C[C@H]1Cn2c(nnc2-c2cccc(F)c2F)CN1C(=O)c1cccc(Cl)c1Cl [Example 44, (S)-(2,3-dichlorophenyl)(3-(2,3-difluorophenyl)-6-methyl-5,6-dihydro-[1,2,4]triazolo[4,3-a]pyrazin-7(8H)-yl)methanone]
13 | 1.82 | 0.408 | C[C@H]1Cn2c(nnc2-c2cccc(F)c2F)CN1C(=O)c1cccc(C(F)(F)F)c1Cl [Example 45, (S)-(2-chloro-3-(trifluoromethyl)phenyl)(3-(2,3-difluorophenyl)-6-methyl-5,6-dihydro-[1,2,4]triazolo[4,3-a]pyrazin-7(8H)-yl)methanone]
14 | 2.54 | 2.42 | C[C@H]1Cn2c(nnc2-c2cccc(F)c2F)CN1C(=O)c1ccc(F)c(Cl)c1Cl [Example 46, (S)-(2,3-dichloro-4-fluorophenyl)(3-(2,3-difluorophenyl)-6-methyl-5,6-dihydro-[1,2,4]triazolo[4,3-a]pyrazin-7(8H)-yl)methanone]
15 | 10.4 | 1.61 | C[C@H]1Cn2c(nnc2-c2ccc(F)c(F)c2)CN1C(=O)c1cccc(Cl)c1Cl [Example 47, (S)-(2,3-dichlorophenyl)(3-(3,4-difluorophenyl)-6-methyl-5,6-dihydro-[1,2,4]triazolo[4,3-a]pyrazin-7(8H)-yl)methanone]
16 | 1.66 | 0.637 | C[C@H]1Cn2c(nnc2-c2ccc(F)c(F)c2)CN1C(=O)c1cccc(C(F)(F)F)c1Cl [Example 48, (S)-(2-chloro-3-(trifluoromethyl)phenyl)(3-(3,4-difluorophenyl)-6-methyl-5,6-dihydro-[1,2,4]triazolo[4,3-a]pyrazin-7(8H)-yl)methanone]
17 | 4.11 | 2.73 | C[C@H]1Cn2c(nnc2-c2ccc(F)c(F)c2)CN1C(=O)c1ccc(F)c(Cl)c1Cl [Example 49, (S)-(2,3-dichloro-4-fluorophenyl)(3-(3,4-difluorophenyl)-6-methyl-5,6-dihydro-[1,2,4]triazolo[4,3-a]pyrazin-7(8H)-yl)methanone]
18 | 1.93 | 0.578 | C[C@H]1Cn2c(nnc2-c2ccc(F)cc2F)CN1C(=O)c1cccc(C(F)(F)F)c1Cl [Example 51, (S)-(2-chloro-3-(trifluoromethyl)phenyl)(3-(2,4-difluorophenyl)-6-methyl-5,6-dihydro-[1,2,4]triazolo[4,3-a]pyrazin-7(8H)-yl)methanone]
19 | 7.05 | 2.09 | C[C@H]1Cn2c(nnc2-c2ccc(F)cc2F)CN1C(=O)c1ccc(F)c(Cl)c1Cl [Example 52, (S)-(2,3-dichloro-4-fluorophenyl)(3-(2,4-difluorophenyl)-6-methyl-5,6-dihydro-[1,2,4]triazolo[4,3-a]pyrazin-7(8H)-yl)methanone]
20 | 0.34 | > 10 | CC1c2nnc(C3CCCCC3)n2CCN1C(=O)c1cccc(C(F)(F)F)c1Cl (stereo not drawn) [Example 61, (2-chloro-3-(trifluoromethyl)phenyl)(3-cyclohexyl-8-methyl-5,6-dihydro-[1,2,4]triazolo[4,3-a]pyrazin-7(8H)-yl)methanone]
21 | > 10 | > 10 | CC1c2nnc(C3CC3)n2CCN1C(=O)c1cccc(C(F)(F)F)c1Cl (stereo not drawn) [Example 65, (2-chloro-3-(trifluoromethyl)phenyl)(3-cyclopropyl-8-methyl-5,6-dihydro-[1,2,4]triazolo[4,3-a]pyrazin-7(8H)-yl)methanone]
